From PMC6582486, “Stapled EGFR peptide reduces inflammatory breast cancer and inhibits additional HER-driven models of cancer” (Journal of Translational Medicine, 2019)
Marks after values point to notes of the source that are not given here. Where a SMILES comes first, the peptide text is derived from it. Bridges are numbered along the chain shown (N, C = ends). [ ]: non-standard residue; d: D form. R8 = C=CCCCCCC[C@@](C)(N)C(=O)O; S5 = C=CCCC[C@](C)(N)C(=O)O

Columns and labels:
[1] = 28-day toxicity study: clinical chemistry; format: in vivo, CD-1 mice; details: day 29, mean ± SD
Protocol: (§1) Toxicology was performed by IITRI. The study was conducted in compliance with the US Food and Drug Administration (FDA) good laboratory practice (GLP) Regulations (Code of Federal Regulations Title 21 Part 58) to evaluate the toxicokinetics, local tolerability, immunogenicity, and potential toxicity of SAH5-EJ1 following three times per week intravenous (IV) dosing for 28 days in mice. Male and female CD-1 IGS [Crl:CD1(ICR)] mice (135 per sex) were received from Wilmington, MA-based Charles River Laboratories, Inc.’s Kingston facility (Stone Ridge, NY).

CHO cells = test: Cell viability assay (MTT), CHO; format: cell-based, Chinese Hamster; details: 5 µM (Fig. 1h)
Text: Fig. 1 Hydrocarbon stapling leads to increased EJ1 activity in comparison to HER-directed monoclonal therapies. a EJ1 sequence with PTD4 domain (underlined) corresponding to EGFR juxtamembrane domain sequence 643–663. Stabilized alpha helix (SAH) variations 1–5 beneath, with asterisks (*) indicating sites of staple. Control peptide (CP) with altered residues indicated by double underline. Stapled control (5) asterisks (*) indicate sites of staple. b Cartoon representation of EJ1 structure, with staple variation 5 highlighted. Positively charged residues indicated in blue, negatively charged residues in red. c Cartoon representation of CP structure, with staple variation highlighted. d Cell viability assay performed in MDA-MB-468 cells after 24 h comparing unstapled EJ1 versus staple variations SAH1, SAH4, and SAH5, with increasing concentrations. e Visualization of MDA-MB-468 cells untreated, treated with 10 µM EJ1, and 10 µM SAH5-EJ1 after 60 min. Scale bars represent 50 µm. f–h Cell viability assay performed in MDA-MB-468, MCF10A, or CHO cells over 3 days comparing treatment with Sapitinib (blue lines), SAH5-EJ1 (red lines), and SAH5-CP (grey lines). […] Absorbance was read at 540 nm by plate reader (uQuant, Bio-Tek Instruments). P-values were calculated from a one-way ANOVA.

[2] = 28-day toxicity study: survival, NOAEL; format: in vivo, CD-1 mice; details: for Survival (%): after 28 days, N = 10
Protocol: as §1
Finally, we confirmed the maximum tolerated dose of SAH5-EJ1, evaluating 5, 10, and 15 mg/kg body weight dosages (Table S3, Additional file 1). […] At 15 mg/kg, one male animal died from unknown causes and was classified as an accidental death. Therefore, 10 mg/kg was considered the no-observed-adverse-effect level (NOAEL). […] Increased spleen weights observed in 10 mg/kg and 15 mg/kg-treated mice most likely resulted from extramedullary hematopoiesis, also known as “blueberry muffin baby syndrome”, an asymptomatic event in which red blood cells accumulate outside of the bone marrow (Table S5, Additional file 1). Increased spleen size is likely due to an increase red blood cell production associated with IV injection-affiliated cell death. Clinical chemistry panels indicate that despite the high concentration of SAH5-EJ1 in the liver, liver function is not inhibited, with normal ranges of ALT/AST and total bilirubin (Table 2).
Male (M) and Female (F) mice. Not including mice for recovery study (additional 10 mice/sex), toxicokinetics (56 mice/sex), or immunogenicity (18 mice/sex). Accidental male deaths on day 27/28 at 5mg/kg dosage and day 22/28 at 15 mg/kg dosage. Female death on day 3/28 at 15mg/kg dosage with hypoactivity noted on day 1.

CC[C@H](C)[C@H](NC(=O)[C@H](Cc1c[nH]cn1)NC(=O)[C@H](CCCNC(=N)N)NC(=O)[C@H](CCCNC(=N)N)NC(=O)[C@H](CCCNC(=N)N)NC(=O)[C@H](CCSC)NC(=O)[C@H](Cc1ccccc1)NC(=O)[C@H](C)NC(=O)[C@H](CCCNC(=N)N)NC(=O)[C@H](C)NC(=O)[C@H](CCC(N)=O)NC(=O)[C@H](CCCNC(=N)N)NC(=O)[C@H](C)NC(=O)[C@H](C)NC(=O)[C@H](C)NC(=O)[C@H](CCCNC(=N)N)NC(=O)[C@H](C)NC(=O)[C@@H](N)Cc1ccc(O)cc1)C(=O)N[C@H](C(=O)N[C@@H](CCCNC(=N)N)C(=O)N[C@@H](CCCCN)C(=O)N[C@@H](CCCNC(=N)N)C(=O)N[C@]1(C)CCCCCCC=CCCC[C@@](C)(C(=O)N[C@@H](CCCNC(=N)N)C(=O)N[C@@H](CCC(=O)O)C(N)=O)NC(=O)[C@H](CCC(N)=O)NC(=O)[C@H](CC(C)C)NC(=O)[C@H](CC(C)C)NC(=O)[C@H](CCCNC(=N)N)NC(=O)[C@H](CCCNC(=N)N)NC(=O)[C@H](CC(C)C)NC1=O)C(C)C [SAH5-EJ1] (H-YARAAARQARAFMRRRHIVRKR[R8]LRRLLQ[S5]RE-NH2; staple 23-30)
ALP ([1]; female, 5 mg/kg, N = 5): 88 ± 33.2 IU/L
ALT ([1]; female, 5 mg/kg, N = 5): 79 ± 35.0 IU/L
AST ([1]; female, 5 mg/kg, N = 5): 80 ± 8.3^a IU/L
BUN ([1]; female, 5 mg/kg, N = 5): 19 ± 2.2 mg/dL
TBIL ([1]; female, 5 mg/kg, N = 5): 0.2 ± 0.05 mg/dL
ALP ([1]; female, 10 mg/kg, N = 5): 70 ± 48.4 IU/L
ALT ([1]; female, 10 mg/kg, N = 5): 61 ± 18.5 IU/L
AST ([1]; female, 10 mg/kg, N = 5): 83 ± 19.0 IU/L
BUN ([1]; female, 10 mg/kg, N = 5): 19 ± 3.0 mg/dL
TBIL ([1]; female, 10 mg/kg, N = 5): 0.1 ± 0.05 mg/dL
ALP ([1]; female, 15 mg/kg, N = 4): 62 ± 18.4 IU/L
ALT ([1]; female, 15 mg/kg, N = 4): 90 ± 27.2 IU/L
AST ([1]; female, 15 mg/kg, N = 4): 93 ± 12.5 IU/L
BUN ([1]; female, 15 mg/kg, N = 4): 22 ± 2.5 mg/dL
TBIL ([1]; female, 15 mg/kg, N = 4): 0.1 ± 0^b mg/dL
ALP ([1]; male, 5 mg/kg, N = 4): 68 ± 13.8 IU/L
ALT ([1]; male, 5 mg/kg, N = 4): 124 ± 71.5 IU/L
AST ([1]; male, 5 mg/kg, N = 4): 92 ± 28.6 IU/L
BUN ([1]; male, 5 mg/kg, N = 4): 26 ± 2.2 mg/dL
TBIL ([1]; male, 5 mg/kg, N = 4): 0.2 ± 0.05 mg/dL
ALP ([1]; male, 10 mg/kg, N = 5): 73 ± 19.7 IU/L
ALT ([1]; male, 10 mg/kg, N = 5): 96 ± 28.3 IU/L
AST ([1]; male, 10 mg/kg, N = 5): 83 ± 23.6 IU/L
BUN ([1]; male, 10 mg/kg, N = 5): 31 ± 7.3 mg/dL
TBIL ([1]; male, 10 mg/kg, N = 5): 0.2 ± 0.04 mg/dL
ALP ([1]; male, 15 mg/kg, N = 4): 58 ± 10.5 IU/L
ALT ([1]; male, 15 mg/kg, N = 4): 67 ± 32.3 IU/L
AST ([1]; male, 15 mg/kg, N = 4): 63 ± 13.5 IU/L
BUN ([1]; male, 15 mg/kg, N = 4): 23 ± 2.9 mg/dL
TBIL ([1]; male, 15 mg/kg, N = 4): 0.2 ± 0.05 mg/dL
cell viability (CHO cells): 67%
systemic or target organ toxicity ([2]; 5, 10 and 15 mg/kg IV, 28-day repeat toxicity study): no evidence of any systemic or target organ toxicity
NOAEL at 672 h ([2]; both sexes, CD-1, mouse, in vivo, IV three times per week, 28 days, mice, read-out: no-observed-adverse-effect level (NOAEL)): 10 mg/kg
Survival (%) ([2]; female, 5 mg/kg): 100%
Survival (%) ([2]; female, 10 mg/kg): 100%
Survival (%) ([2]; female, 15 mg/kg): 90%
Survival (%) ([2]; male, 5 mg/kg): 90%
Survival (%) ([2]; male, 10 mg/kg): 100%
Survival (%) ([2]; male, 15 mg/kg): 90%
